# Publication PMC7108851 (Journal of Virology, 2020)
# Several values for one entry are separate records, joined by “and”; a condition that tells them apart may be missing. Equal values may be shown once. Read-outs that look alike come from different tables or passages of the source.
# Experiments:
# [1] = tested on: simian immunodeficiency virus (SIV); settings: cited from earlier work
# Y181I HIV-1NL4-BAL = test: Drug susceptibility assay in TZM-bl cells; format: cell-based; settings: Fig. 1A
# Y181C = tested on: Y181C; set-up: method as in PMID 19933797; settings: cited from earlier work
# HIV-1 = settings: cited from earlier work
# Y181C HIV-1NL4-BAL = test: Drug susceptibility assay in TZM-bl cells; format: cell-based; settings: Fig. 1A
# Protocol: (§1) WT, Y181C, and Y181V HIV-1 stocks were phenotyped for resistance to RPV or RPV LA as previously described ([68]). Briefly, TZM-bl cells ([84]) were seeded at 5 × 10^3 cells in 96-well cell culture-treated, white-walled plates (PerkinElmer) in phenol red-free Dulbecco’s modified Eagle’s medium (DMEM; Life Technologies) supplemented with 10% fetal bovine serum (FBS; Atlanta Biologicals) and 100 U/ml penicillin, 100 μg/ml streptomycin, and 0.292 mg/ml L-glutamine (PSG; Life Technologies). The following day, virus was added at a multiplicity of infection (MOI) of 0.05 in the presence or absence of RPV dilutions in triplicate. Plates were incubated at 37°C for 48 h, and luciferase was measured using Britelite Plus reagent (PerkinElmer) on a Luminoskan Ascent microplate luminometer (Thermo Scientiﬁc). Relative light units (RLU) were converted to percent infection by dividing the RLU of each drug dilution by the RLU of the 100% infection control in the absence of drug. Wells containing cells with no virus and no drug were used to normalize for background luciferase output. The EC50 was calculated by log transforming drug concentrations and using a four-parameter variable-slope nonlinear regression for curve-ﬁtting analysis using PRISM 6 (GraphPad).
# Y181V HIV-1NL4-BAL = test: Drug susceptibility assay in TZM-bl cells; format: cell-based
# Protocol: as §1
# WT HIV-1CH185 = test: Drug susceptibility assay in TZM-bl cells; format: cell-based; settings: Human immunodeficiency virus 1, Fig. 9B
# Protocol: as §1
# Y181V HIV-1CH185 = test: Drug susceptibility assay in TZM-bl cells; format: cell-based; settings: Fig. 9B
# Protocol: as §1
# WT HIV-1NL4-BAL = test: Drug susceptibility assay in TZM-bl cells; format: cell-based; settings: Human immunodeficiency virus 1, BAL
# Protocol: as §1
# [2] = cited from earlier work
# E138K = test: RPV resistance of RT mutant (data not shown); format: cell-based, HIV-1
# [3] = even at a high dose; cited from earlier work
# Y181V = tested on: Y181V; set-up: method as in earlier work; settings: cited from earlier work
# [4] = format: in vivo, female BLT mice; settings: for genital tract tissue concentrations relative to what has been observed in women: single dose TFV 150 mg/kg, higher than in women (54)
# Protocol: For RPV LA, 14 mice were injected intramuscularly in the flank with 3 mg RPV LA, for a dose of approximately 150 mg/kg. Two mice were euthanized at 1, 3, 6, 12, 24, 48, and 168 h postinjection. For TFV/FTC, an additional 12 mice were injected intraperitoneally with 150 mg/kg TFV and 100 mg/kg FTC. Two mice were euthanized at 1, 3, 6, 12, 24, and 48 h postinjection. Blood was drawn at each time point until euthanasia, and plasma was separated. At necropsy, female genital tract and colon/rectum were collected, weighed, and immediately flash-frozen dry.
# RPV, TFV, and FTC were extracted from mouse plasma with isotopically labeled internal standards (RPV-d6; TFV-^13C5; and FTC-^13C, ^15N2, respectively) using protein precipitation. TFV and FTC were separated on a Waters Atlantis T3 (2.1 by 50 mm, 3 μm) high-performance liquid chromatography (HPLC) column and RPV on an Xterra MS C18 (2.1 by 50 mm, 3.5 μm) HPLC column. The calibrated ranges were 1 to 4,000 ng/ml (TFV and FTC) or 1 to 10,000 ng/ml (RPV). Calibration standards and quality control (QC) samples were prepared in blank plasma with an acceptance criteria of ±20%.
# Frozen tissue biopsy specimens were homogenized in 1 ml of cold 70:30 acetonitrile–1 mM ammonium phosphate (pH 7.4). RPV, TFV, FTC, TFVdp, and FTCtp were extracted from tissue homogenate with the following isotopically labeled internal standards: RPV-d6; TFV-^13C5; FTC-^13C, ^15N2; and TFVdp-^13C5 (for both TFVdp and FTCtp). For quantification, analytes and internal standards were separated on a Waters Atlantis T-3 C18 HPLC column (TFV and FTC), a ThermoBioBasic AX HPLC column (TFVdp and FTCtp), or an Xterra MS C18 (2.1 by 50 mm, 3.5 μm) HPLC column (RPV). The calibrated ranges were 0.300 to 300 ng/ml (TFV, FTC, TFVdp, and FTCtp) and 1 to 200 ng/ml (RPV). Resulting concentrations were normalized to tissue weight assuming a tissue density of 1 g/ml ([86]) and reported as nanograms or femtomole per gram. Calibration standards and QC samples were prepared in blank tissue homogenate with an acceptance criteria of ±20%.
# Y181I/V = tested on: Y181I/V; set-up: method as in PMID 19933797; settings: cited from earlier work
structure (smiles),measurement,setting,value
"Cc1cc(/C=C/C#N)cc(C)c1Nc1ccnc(Nc2ccc(C#N)cc2)n1 [RPV, rilpivirine]",inhibition of simian immunodeficiency virus (SIV),[1],does not inhibit
same,fold increase in EC50 (RPV resistance) vs WT HIV-1NL4-BAL,Y181I HIV-1NL4-BAL,23 fold
same,resistance conferred by Y181C,Y181C,3 fold
same,protein-adjusted 90% effective concentration (EC90),HIV-1,0.012 µg/mL and 0.0121 µg/mL
same,EC90,HIV-1; read-out: protein-adjusted EC90,33 nM
same,fold increase in EC50 (RPV resistance) vs WT HIV-1NL4-BAL,Y181C HIV-1NL4-BAL,3 fold
same,EC50,"Y181V HIV-1NL4-BAL; Human immunodeficiency virus 1, BAL, TZM-bl cells, Fig. 9B",7.3 ± 1.3 nM
same,fold change from the level for WT HIV-1NL4-BAL,"Y181V HIV-1NL4-BAL; Y181V HIV-1NL4-BAL, Fig. 9B",21 fold
same,fold increase in EC50 (RPV resistance) vs WT HIV-1NL4-BAL,"Y181V HIV-1NL4-BAL; Y181V, TZM-bl cells, Fig. 1A",27 fold
same,reduced susceptibility to RPV of virus encoding Y181V,Y181V HIV-1NL4-BAL; discussion,> 20 fold
same,RPV resistance of Y181V HIV-1,Y181V HIV-1NL4-BAL; in the viruses used for this study (abstract),30 fold
same,EC50,WT HIV-1CH185,0.21 ± 0.003 nM
same,EC50,"Y181V HIV-1CH185; Human immunodeficiency virus 1, TZM-bl cells",12 ± 1.5 nM
same,fold change from the level for WT HIV-1NL4-BAL,Y181V HIV-1CH185; Y181V HIV-1CH185,36 fold
same,EC50,"WT HIV-1NL4-BAL; Fig. 1A, read-out: 50% effective concentration (EC50)",0.54 nM and 0.0002 µg/mL
same,EC50,"WT HIV-1NL4-BAL; Fig. 9B, read-out: average EC50",0.34 ± 0.07 nM
same,EC50,"WT HIV-1NL4-BAL; RPV LA compared with soluble RPV, Fig. 2, read-out: EC50",0.6 nM and 0.00022 µg/mL
same,protein binding,[2],highly protein bound
same,resistance conferred by E138K,E138K,2 fold
same,metabolism in macaques,[3],rapidly metabolized
same,resistance conferred by Y181V,Y181V,approximately 20 fold
"C[C@H](Cn1cnc2c(N)ncnc21)OCP(=O)(O)O [TFV, tenofovir]",genital tract tissue concentrations relative to what has been observed in women,[4],approximately 10 fold
"CC(Cn1cnc2c(N)ncnc21)OCP(=O)(O)OP(=O)(O)OP(=O)(O)O (stereo in doubt) [TFVdp, TFV diphosphate]",genital tract tissue concentrations relative to what has been observed in women,[4],approximately 10 fold
"Nc1nc(=O)n([C@@H]2CS[C@H](COP(=O)(O)OP(=O)(O)OP(=O)(O)O)O2)cc1F [FTCtp, FTC triphosphate]",tissue FTC triphosphate (FTCtp) concentrations,"[4]; female genital tract, 12 h, 24 h, and 48 h postdose, single dose PK study",undetectable
Cc1ccnc2c1NC(=O)c1cccnc1N2C1CC1 [nevirapine],resistance conferred by Y181C,Y181C,> 40 fold
same,resistance conferred by Y181I/V,Y181I/V,> 60 fold
